According to patent publication EP4631937A1, “CRYSTALLINE FORM OR AMORPHOUS FORM OF OXOISOINDOLE-5-FORMAMIDE COMPOUND OR SALT AND SOLVATE THEREOF” (Hangzhou Glubio Pharmaceutical Co., Ltd., priority 2022, dated 2024):

Key:
[1] = Hygroscopicity test by DVS, with XRPD after DVS; type: physicochemical; details: 25 °C, listed as Crystalline form G
Experimental: • DVS Intrinsic Dynamic Vapor Sorption Instrument • Gas flow rate 200 sccm, furnace temperature 25 °C.
(§1) The hygroscopicity and dehydration behavior of crystalline form B was investigated by DVS. Humidity program: 25 °C, 40-0-95-0-40% RH, dm/dt 0.002, shortest equilibrium time was 60 min, and longest equilibrium time was 360 min. XRPD was also performed on the samples after DVS test to determine whether the crystal transformation occurred.
as §1, with “E” for “B”
as §1, with “G” for “B”

[2] = Simulated tableting experiment (XRPD after pressing); type: physicochemical
Experimental: About 10 mg of crystalline form G was weighed and pressed at 2 MPa, 5 MPa or 10 MPa for 5 min. The crystal transformation and the change of crystallinity were investigated by XRPD characterization.

[3] = Pharmacokinetic evaluation in mice by gavage; type: in vivo; parameters: AUClast /D: unit not given here; details: CD1 male mice, oral, 30 mg/kg, 25 mM citrate buffer (pH 3) containing 5% Tween 80
Experimental: CD1 male mice were selected and the test compound was administered orally. The drug concentration in plasma at different time points was quantitatively determined by LC/MS/MS to evaluate the pharmacokinetic characteristics of the test drug in mice.
Experimental materials: CD1 Mouse (male, 20-30 g, 6-8 weeks old, Zhejiang Weitong Lihua).
Blood was collected from the dorsal plantar vein at 0.25 h, 0.5 h, 1 h, 2 h, 4 h, 6 h, 8 h and 24 h after administration, placed in an anticoagulant tube containing EDTA-K2 and mixed, and centrifuged at 4°C and 4000 g for 5 minutes. The drug concentration in blood was determined by LC-MS/MS, and the relevant pharmacokinetic parameters were calculated by the non-compartmental linear/log trapezoidal method using Phoenix WinNonlin 6.3 pharmacokinetic software.

[4] = Stability test of crystalline forms (open container at 25°C/92% RH and 40°C/75% RH, sealed container at 60°C, 13 days; XRPD, HPLC, colour); type: physicochemical; details: Solid, 1 week, listed as Crystalline form G; for Chemical purity / Chiral purity: HPLC/SFC
[5] = as above; type: physicochemical; details: initial, before storage; listed as Crystalline form G
Experimental: Placed in a open container at 25°C/92% RH and 40°C/75% RH for 13 days, respectively, or in a sealed container at 60°C for 13 days. […]
(§2) Placed in a open container at 25 °C/92% RH and 40 °C/75% RH for 13 days, respectively, or in a sealed container at 60 °C for 13 days. […]
as §2

With `O=C1CC[C@H](N2Cc3cc(C(=O)N[C@H](c4ccc(Cl)cn4)C4CCC4)ccc3C2=O)C(=O)N1` [crystalline form G, N-((S)-(5-chloropyridin-2-yl)(cyclobutyl)methyl)-2-((S)-2,6-dioxopiperidin-3-yl)-1-oxoisoindoline-5-carboxamide] the “1st adsorption weight change percentage” value ([1]; relative humidity 0%) was 0.0%, the “1st desorption weight change percentage” value ([1]; relative humidity 0%) was 0.0% and the “1st adsorption weight change percentage” value ([1]; relative humidity 10%) was 0.0%. The “1st desorption weight change percentage” value ([1]; relative humidity 10%) was 0.1%, the “2nd adsorption weight change percentage” value ([1]; relative humidity 10%) was 0.0% and the “2nd desorption weight change percentage” value ([1]; relative humidity 10%) was 0.1%. The “1st adsorption weight change percentage” value ([1]; relative humidity 20%) was 0.0%, the “1st desorption weight change percentage” value ([1]; relative humidity 20%) was 0.1% and the “2nd adsorption weight change percentage” value ([1]; relative humidity 20%) was 0.0%. For the same compound, the “2nd desorption weight change percentage” value ([1]; relative humidity 20%) was 0.1%, the “1st adsorption weight change percentage” value ([1]; relative humidity 30%) was 0.1% and the “1st desorption weight change percentage” value ([1]; relative humidity 30%) was 0.2%. The “2nd adsorption weight change percentage” value ([1]; relative humidity 30%) was 0.1%, the “2nd desorption weight change percentage” value ([1]; relative humidity 30%) was 0.2% and the “1st adsorption weight change percentage” value ([1]; relative humidity 40%) was 0.1%. For the same compound, the “1st desorption weight change percentage” value ([1]; relative humidity 40%) was 0.3%, the “2nd adsorption weight change percentage” value ([1]; relative humidity 40%) was 0.1% and the “2nd desorption weight change percentage” value ([1]; relative humidity 40%) was 0.3%. The “1st adsorption weight change percentage” value ([1]; relative humidity 50%) was 0.2%, the “2nd desorption weight change percentage” value ([1]; relative humidity 50%) was 0.3% and the “1st adsorption weight change percentage” value ([1]; relative humidity 60%) was 0.2%. The “2nd desorption weight change percentage” value ([1]; relative humidity 60%) was 0.4%, the “1st adsorption weight change percentage” value ([1]; relative humidity 70%) was 0.3% and the “2nd desorption weight change percentage” value ([1]; relative humidity 70%) was 0.4%. For the same compound, the “1st adsorption weight change percentage” value ([1]; relative humidity 80%) was 0.3%, the “2nd desorption weight change percentage” value ([1]; relative humidity 80%) was 0.5% and the “1st adsorption weight change percentage” value ([1]; relative humidity 90%) was 0.5%. The “2nd desorption weight change percentage” value ([1]; relative humidity 90%) was 0.5%, the “1st adsorption weight change percentage” value ([1]; relative humidity 95%) was 0.7% and the “2nd desorption weight change percentage” value ([1]; relative humidity 95%) was 0.7%. For the same compound, the “XRPD after DVS test” value ([1]; after 40-0-95-0-40% RH) was “The crystal form did not change, see Figure 20b”, the “moisture adsorbed (DVS)” value ([1]; under 40%RH-95%RH) was 0.6% of moisture was adsorbed under 40%RH-95%RH, see Figure 20a and the “Notes (change of crystallinity)” value ([2]; pressed at 2 MPa for 5 min) was “No significant change in crystallinity”. For the same compound, the XRPD ([2]; pressed at 2 MPa for 5 min) was “Crystalline form G, see Figure 21a”, the “Notes (change of crystallinity)” value ([2]; pressed at 5 MPa for 5 min) was “No significant change in crystallinity” and the XRPD ([2]; pressed at 5 MPa for 5 min) was “Crystalline form G, see Figure 21a”. The “Notes (change of crystallinity)” value ([2]; pressed at 10 MPa for 5 min) was “No significant change in crystallinity”, the XRPD ([2]; pressed at 10 MPa for 5 min) was “Crystalline form G, see Figure 21a” and the change in crystallinity ([2]; tableted at 2 MPa, 5 MPa and 10 MPa pressures) was “no significant change in crystallinity was observed”. For the same compound, the “AUClast /D” value ([3]; dose-normalised) was 306 ± 35, the AUC(0-inf) ([3]; mouse, plasma) was 10700 ± 2100 ng·h/mL and the AUC(0-t) ([3]; mouse, plasma) was 9170 ± 1050 ng·h/mL. The Cmax ([3]; mouse, plasma) was 1370 ± 365 ng/mL, the Tmax ([3]; mouse, plasma) was 0.42 h and the half-life ([3]; mouse, plasma) was 8.7 h. For the same compound, the Chemical purity ([4]; 25 °C/92% RH, open container) was 99.4%, the Chiral purity ([4]; 25 °C/92% RH, open container) was 97.8% and the “Solid (XRPD)” value ([4]; 25 °C/92% RH, open container) was “The crystal form did not change, see Figure 17c”. The Chemical purity ([4]; 40 °C/75% RH, open container) was 99.5%, the Chiral purity ([4]; 40 °C/75% RH, open container) was 97.8% and the “Solid (XRPD)” value ([4]; 40 °C/75% RH, open container) was “The crystal form did not change, see Figure 17c”. The Chemical purity ([4]; 60 °C, sealed container) was 99.5%, the Chiral purity ([4]; 60 °C, sealed container) was 97.7% and the “Solid (XRPD)” value ([4]; 60 °C, sealed container) was “The crystal form did not change, see Figure 17c”. For the same compound, the “Initial purity (HPLC/SFC) Chemical purity” value [5] was 99.7% and the “Initial purity (HPLC/SFC) Chiral purity” value [5] was 97.6%.
